Tested on: HCT116 cells
Assay: Whole transcriptome microarray of gene re-expression in drug-treated CRC cells (11 hypermethylated guide genes)
Type: cell-based, human
Protocol: Cell culture and treatment. HCT116 cells and isogenic genetic knockout derivatives were maintained as previously described (14). For drug treatments, log phase CRC cells were cultured in McCoys 5A media (Invitrogen) containing 10% BCS and 1× penicillin/streptomycin with 5 μM 5aza-deoxycytidine (DAC) (Sigma; stock solution: 1 mM in PBS) for 96 hours, replacing media and DAC every 24 hours. Cell treatment with 300 nM Trichostatin A (Sigma; stock solution: 1.5 mM dissolved in ethanol) was performed for 18 hours. Control cells underwent mock treatment in parallel with addition of equal volume of PBS or ethanol without drugs.
Microarray analysis. Total RNA was harvested from log phase cells using Triazol (Invitrogen) and the RNeasy kit (Qiagen) according to the manufacturers instructions, including a DNAase digestion step. RNA was quantified using the Nanoprop ND-100 followed by quality assessment with 2100 Bioanalyzer (Agilent Technologies). RNA concentrations for individual samples were greater than 200 ng/ul, with 28s/18s ratios greater than 2.2 and RNA integrity of 10 (10 scored as the highest). Sample amplification and labeling procedures were carried out using the Low RNA Input Fluorescent Linear Amplification Kit (Agilent Technologies) according to the manufacturers instructions. The labeled cRNA was purified using the RNeasy mini kit (Qiagen) and quantified. RNA spike-in controls (Agilent Technologies) were added to RNA samples before amplification. 0.75 microgram of samples labeled with Cy3 or Cy5 were mixed with control targets (Agilent Technologies), assembled on Oligo Microarray, hybridized, and processed according to the Agilent microarray protocol. Scanning was performed with the Agilent G2565BA microarray scanner using settings recommended by Agilent Technologies.
Data analysis. All arrays were subject to quality checks recommended by the manufacturer. […] The log ratio of red signal to green signal was calculated after background-subtraction and LoEss normalization as implemented in the limma package from Bioconductor (25,26). […]

SMILES	guide genes increased 1.3 fold or more (total) (5 μM DAC for 96 hours, 11 known hypermethylated, silenced guide genes) [%]	guide genes increased 2-fold or more (5 μM DAC for 96 hours, 11 known hypermethylated, silenced guide genes (5 of 11)) [%]	response of guide gene expression to TSA (300 nM Trichostatin A for 18 hours, zone = expression increase <1.4 fold)
Nc1ncn([C@H]2C[C@H](O)[C@@H](CO)O2)c(=O)n1 [DAC, 5-aza-2′-deoxycytidine]	73	45	–
CC(/C=C/C(=O)NO)=C\[C@@H](C)C(=O)c1ccc(N(C)C)cc1 [TSA, trichostatin A]	–	–	All tested genes remained within the TSA non-responsive zone

Reference: US20080221056A1, “Early Detection and Prognosis of Colon Cancers” (JOHNS HOPKINS UNIVERSITY, priority 2007, published 2008)
